# Source: patent US5856166A, “Streptomyces proteases and methods for improved secretion of recombinantly-expressed proteins” (Cangene Corporation, priority 1994, dated 1999)
# Where a SMILES comes first, the peptide text is derived from it. [ ]: non-standard residue; d: D form. The star is where a group is joined. Sta = CC(C)C[C@H](N)[C@@H](O)CC(=O)O; pNA = O=[N+]([O-])c1ccc(N*)cc1; AMC = Cc1cc(=O)oc2cc(N*)ccc12; Isovaleryl = CC(C)CC(=O)*; βNA = c1ccc2cc(N*)ccc2c1; Boc = CC(C)(C)OC(=O)*
# Target: T1, Tap (tripeptidyl aminopeptidase) (Streptomyces lividans, UniProt Q54410)
# T1 construct: An autolytic tripeptide cleavage removing APA after signal peptide removal would yield the N-terminal found for the secreted protease; made in house; host or cells: Streptomyces lividans 66 (wild-type strain, native secreted enzyme purified from the broth)
# T1 sequence (Q54410 40-537): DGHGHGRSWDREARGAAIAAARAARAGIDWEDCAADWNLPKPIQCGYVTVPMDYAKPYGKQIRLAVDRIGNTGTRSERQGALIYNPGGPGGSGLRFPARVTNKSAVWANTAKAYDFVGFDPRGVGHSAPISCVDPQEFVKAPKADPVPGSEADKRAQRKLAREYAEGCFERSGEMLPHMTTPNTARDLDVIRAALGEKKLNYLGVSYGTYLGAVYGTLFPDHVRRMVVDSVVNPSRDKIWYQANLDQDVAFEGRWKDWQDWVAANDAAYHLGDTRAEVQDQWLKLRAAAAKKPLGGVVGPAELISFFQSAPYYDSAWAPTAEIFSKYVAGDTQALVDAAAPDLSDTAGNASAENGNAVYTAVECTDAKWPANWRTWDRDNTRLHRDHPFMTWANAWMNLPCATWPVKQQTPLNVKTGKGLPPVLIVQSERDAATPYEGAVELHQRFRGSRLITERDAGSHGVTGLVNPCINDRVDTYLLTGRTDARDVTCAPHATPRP
# Test: Release of reporter group from synthetic substrates by pure Tap
# Assay type: biochemical, S. lividans 66
# Settings: not given
# Description: The enzyme was also active when APM-pNA, APA-AMC, APS-bNA, GPL-bNA, and SPA-bNA were used as substrates. […] The enzyme only released the reporter group from substrates with a free amino terminal.
# (§1) The assay was conducted in a 96 well microtiter plate. To each well in the assay, 50 ul 100 mM Tris-HCl, pH 8.0, were added followed by 25 ul 3.2 mM APA-pNA. 25 ul of Tap were added to the wells and the absorbance was read at 405 nm. The assays were incubated at 37° C. for 2 hours. The absorbance was read at 405 nm. The activity (release of p-nitroaniline) was calculated from the change in absorbance.
row,Compound,release of reporter group when used as substrate of Tap
1,"C[C@H](N)C(=O)N1CCC[C@H]1C(=O)N[C@@H](CO)C(=O)Nc1ccc2ccccc2c1 [APS-bNA, L-alanyl-L-prolyl-L-serine beta-naphthylamide] (H-Ala-Pro-Ser-βNA)",active
2,"C[C@H](NC(=O)[C@@H]1CCCN1C(=O)[C@@H](N)CO)C(=O)Nc1ccc2ccccc2c1 [SPA-bNA, L-seryl-L-prolyl-L-alanine beta-naphthylamide] (H-Ser-Pro-Ala-βNA)",active
3,"C[C@H](N)C(=O)Nc1ccc([N+](=O)[O-])cc1 [A-pNA, L-alanine p-nitroanilide]",did not release the reporter group
4,"N=C(N)NCCC[C@H](N)C(=O)Nc1ccc([N+](=O)[O-])cc1 [R-pNA, L-arginine p-nitroanilide]",did not release the reporter group
5,"CSCC[C@H](NC(=O)[C@@H]1CCCN1C(=O)[C@H](C)N)C(=O)Nc1ccc([N+](=O)[O-])cc1 [APM-pNA, L-alanyl-L-prolyl-L-methione p-nitroanilide] (H-Ala-Pro-Met-pNA)",active
6,"O=C(Nc1ccc([N+](=O)[O-])cc1)[C@@H]1CCCN1 [P-pNA, L-proline p-nitroanilide]",did not release the reporter group
7,"CC(C)C[C@H](N)C(=O)Nc1ccc([N+](=O)[O-])cc1 [L-pNA, L-leucine p-nitroanilide]",did not release the reporter group
8,"C[C@H](N)C(=O)N1CCC[C@H]1C(=O)N[C@@H](C)C(=O)Nc1ccc([N+](=O)[O-])cc1 [APApNA, L-alanyl-L-prolyl-L-alanine p-nitroanilide] (H-Ala-Pro-Ala-pNA)",releases p-nitroaniline
9,"N[C@@H](CO)C(=O)Nc1ccc2ccccc2c1 [S-bNA, L-serine beta-naphthylamide]",did not release the reporter group
10,"N=C(N)NCCC[C@H](NC(=O)[C@H](Cc1ccccc1)NC(=O)[C@H]1CCCN1)C(=O)Nc1ccc([N+](=O)[O-])cc1 [D-PFR-pNA, D-prolyl-L-phenylalanyl-L-arginine p-nitroanilide] (H-[dP]-Phe-Arg-pNA)",did not release the reporter group
11,N=C(N)NCCC[C@H](NC(=O)c1ccccc1)C(=O)Nc1ccc([N+](=O)[O-])cc1 [N-Bz-R-pNA],did not release the reporter group
12,"C[C@H](N)C(=O)N[C@@H](C)C(=O)Nc1ccc([N+](=O)[O-])cc1 [AA-pNA, L-alanyl-L-alanine p-nitroanilide] (H-Ala-Ala-pNA)",did not release the reporter group
13,"CC(=O)N[C@@H](C)C(=O)N1CCC[C@H]1C(=O)N[C@@H](C)C(=O)Nc1ccc([N+](=O)[O-])cc1 [N-Ac-APA-pNA, N-acetyl-L-alanyl-L-prolyl-L-alanine p-nitroanilide] (Ac-Ala-Pro-Ala-pNA)",did not release the reporter group
14,"CC(C)C[C@H](NC(=O)[C@@H]1CCCN1C(=O)CN)C(=O)Nc1ccc2ccccc2c1 [GPL-bNA, Glycyl-L-prolyl-L-leucine beta-napthylamide] (H-Gly-Pro-Leu-βNA)",active
15,"Cc1cc(=O)oc2cc(NC(=O)[C@H](C)NC(=O)[C@@H]3CCCN3C(=O)[C@H](C)N)ccc12 [APA-AMC, L-alanyl-L-prolyl-L-alanine 7-amino-4-methylcoumarin] (H-Ala-Pro-Ala-{AMC})",active
16,"C[C@H](NC(=O)OC(C)(C)C)C(=O)N[C@@H](C)C(=O)N1CCC[C@H]1C(=O)N[C@@H](C)C(=O)Nc1ccc([N+](=O)[O-])cc1 [Boc-AAPA-pNA, N-t-butoxycarbonyl L-alanyl-L-alanyl-L-prolyl-L-alanine p-nitroanilide] (Boc-AAPA-pNA)",did not release the reporter group
17,"NCC(=O)N1CCC[C@H]1C(=O)Nc1ccc([N+](=O)[O-])cc1 [GP-pNA, Glycyl-L-proline p-nitroanilide] (H-Gly-Pro-pNA)",did not release the reporter group
18,"C[C@H](NC(=O)[C@@H]1CCCN1C(=O)[C@H](C)NC(=O)OC(C)(C)C)C(=O)N[C@@H](CCCNC(=N)N)C(=O)N[C@@H](CO)C(=O)N1CCC[C@H]1C(=O)N[C@@H](C)C(=O)Nc1ccc2ccccc2c1 [Boc-APARSPA-bNA, L-alanyl-L-prolyl-L-analyl-L-arginyl-L-seryl-L-prolyl-L-alanine beta-naphthylamide] (Boc-APARSPA-βNA)",did not release the reporter group
19,"C[C@H](N)C(=O)N[C@@H](C)C(=O)N1CCC[C@H]1C(=O)N[C@@H](C)C(=O)Nc1ccc([N+](=O)[O-])cc1 [AAPA-pNA, L-alanyl-L-alanyl-L-prolyl-L-analine p-nitroanilide] (H-AAPA-pNA)",did not release the reporter group
20,N-benzoyl-L-alanyl-glycyl-L-arginine p-nitroanilide [N-Bz-VGR-pNA],did not release the reporter group

# Target: T1, Tap (tripeptidyl aminopeptidase)
# Test: Inhibition of TAP in the APA-pNA assay (protease inhibitor survey, Table I)
# Assay type: biochemical, S. lividans 66
# Settings: inhibitor 0.1 mM; preincubated 15 minutes at 22° C.; substrate APA-pNA; enzyme only = 100
# Description: The protease and inhibitor were preincubated for 15 minutes at 22° C. Substrate was added and the mixture was incubated at 37° C. Activity was measured by monitoring the change in absorbance at λ=405 nm.
# as §1
row,Compound,Residual Activity
1,Chymostatin,98
2,[Cl][Hg][Cl] [HgCl1],99

# Same assay, conditions: inhibitor 0.1 mM; preincubated 15 minutes at 22° C.; substrate APA-pNA; enzyme only = 100; read-out: Residual Activity
row,Compound,remaining activity at 100 µM
1,CC(C)CC(=O)N[C@H](C(=O)N[C@H](C(=O)N[C@@H](CC(C)C)[C@@H](O)CC(=O)N[C@@H](C)C(=O)N[C@@H](CC(C)C)[C@@H](O)CC(=O)O)C(C)C)C(C)C [Pepstatin] (Isovaleryl-VV[Sta]A[Sta]-OH),95%
2,CC(C)C[C@H](NC(=O)N[C@H](C(=O)N[C@@H](CCC(N)=O)C(=O)N[C@@H](C)C=O)[C@@H]1CCNC(=N)N1)C(=O)O [Elastatinal],97%

# Same assay, conditions: inhibitor 1.0 mM; preincubated 15 minutes at 22° C.; substrate APA-pNA; enzyme only = 100
row,Compound,Residual Activity
1,[Cl-].[Cl-].[Co+2] [CoCl2],98
2,[Ca+2].[Cl-].[Cl-] [CaCl2],96
3,[Cl][Hg][Cl] [HgCl1],93

# Same assay, conditions: inhibitor 1.0 mM; preincubated 15 minutes at 22° C.; substrate APA-pNA; enzyme only = 100; read-out: Residual Activity
row,Compound,remaining activity at 1000 µM
1,OC(CS)C(O)CS (stereo not drawn) [DTT],86%

# Same assay, conditions: inhibitor 10 mM; preincubated 15 minutes at 22° C.; substrate APA-pNA; enzyme only = 100
row,Compound,Residual Activity
1,[Cl-].[Cl-].[Co+2] [CoCl2],97
2,[Ca+2].[Cl-].[Cl-] [CaCl2],97

# Same assay, conditions: inhibitor 10 mM; preincubated 15 minutes at 22° C.; substrate APA-pNA; enzyme only = 100; read-out: Residual Activity
row,Compound,remaining activity at 10000 µM
1,N=C(N)c1ccccc1 [Benzamidine],94%

# Same assay, conditions: read-out: Residual Activity
Compound,remaining activity at 1000 µM,remaining activity at 10000 µM
"O=C(O)CN(CCN(CC(=O)O)CC(=O)O)CC(=O)O [EDTA, Ethylenediaminetetraacetic acid]",95%,95%
